Reference: patent US12516056B2, “Compounds for inhibition of janus kinase 1” (MANKIND PHARMA LTD., priority 2019, dated 2026)

Tests used:
Recombinant JAK1 = molecular target: T1, Recombinant JAK1 (Homo sapiens, UniProt P23458); assay: JAK biochemical assay (LANCE Ultra TR-FRET), JAK1; details: recombinant JAK1, TR-FRET; read-out: Biochemical Assay (μM) JAK1
T1 construct: purchased Carna Biosciences
Protocol: (§1) Recombinant JAK1, JAK2, JAK3 and TYK2 (Carna Biosciences) were used to develop biochemical assays in 50 mM HEPES pH 7.5, 1 mM EGTA, 10 mM MgCl2, 2 mM DTT and 0.01% Tween-20. […] The intensity of the light emission is proportional to the level of ULight substrate phosphorylation. Compounds which interfere with JAK enzyme activity show a lesser substrate phosphorylation and values are projected in terms of % inhibition in comparison to vehicle control.

Recombinant JAK2 = molecular target: T2, Recombinant JAK2 (Homo sapiens, UniProt O60674); assay: JAK biochemical assay (LANCE Ultra TR-FRET), JAK2; details: recombinant JAK2, TR-FRET; read-out: Biochemical Assay (μM) JAK2
T2 construct: purchased Carna Biosciences
Protocol: as §1

Recombinant JAK3 = molecular target: T3, Recombinant JAK3 (Homo sapiens, UniProt P52333); assay: JAK biochemical assay (LANCE Ultra TR-FRET), JAK3; details: recombinant JAK3, TR-FRET; read-out: Biochemical Assay (μM) JAK3
T3 construct: purchased Carna Biosciences
T3 sequence (P52333 1-1124): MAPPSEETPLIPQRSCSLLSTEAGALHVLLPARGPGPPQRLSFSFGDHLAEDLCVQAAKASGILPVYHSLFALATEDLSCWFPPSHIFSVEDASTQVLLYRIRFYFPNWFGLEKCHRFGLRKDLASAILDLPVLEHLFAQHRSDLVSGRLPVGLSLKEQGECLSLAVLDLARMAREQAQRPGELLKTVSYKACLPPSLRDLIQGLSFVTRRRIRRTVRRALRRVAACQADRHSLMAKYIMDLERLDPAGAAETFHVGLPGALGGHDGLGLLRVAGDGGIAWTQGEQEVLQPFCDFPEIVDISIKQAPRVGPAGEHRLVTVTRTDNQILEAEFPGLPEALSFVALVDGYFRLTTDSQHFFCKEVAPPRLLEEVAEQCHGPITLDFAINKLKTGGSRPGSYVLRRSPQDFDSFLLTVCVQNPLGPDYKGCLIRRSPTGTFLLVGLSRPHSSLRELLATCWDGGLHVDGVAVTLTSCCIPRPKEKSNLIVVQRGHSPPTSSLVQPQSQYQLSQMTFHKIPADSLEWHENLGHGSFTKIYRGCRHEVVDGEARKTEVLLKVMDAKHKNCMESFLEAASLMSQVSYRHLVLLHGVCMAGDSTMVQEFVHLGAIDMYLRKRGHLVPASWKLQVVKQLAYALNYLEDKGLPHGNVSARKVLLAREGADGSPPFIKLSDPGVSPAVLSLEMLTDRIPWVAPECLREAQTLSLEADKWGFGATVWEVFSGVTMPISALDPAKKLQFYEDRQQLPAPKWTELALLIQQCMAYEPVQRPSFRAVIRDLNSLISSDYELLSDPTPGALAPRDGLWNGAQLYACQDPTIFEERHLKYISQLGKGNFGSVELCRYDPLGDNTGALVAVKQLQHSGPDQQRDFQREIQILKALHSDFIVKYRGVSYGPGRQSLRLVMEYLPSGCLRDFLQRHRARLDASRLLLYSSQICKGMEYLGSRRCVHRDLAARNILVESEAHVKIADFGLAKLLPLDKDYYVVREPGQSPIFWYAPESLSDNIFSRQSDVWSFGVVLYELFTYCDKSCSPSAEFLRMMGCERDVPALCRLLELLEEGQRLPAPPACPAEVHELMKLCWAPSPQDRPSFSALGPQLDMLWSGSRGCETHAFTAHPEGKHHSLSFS
Protocol: as §1

Recombinant TYK2 = molecular target: T4, Recombinant TYK2 (Homo sapiens, UniProt P29597); assay: JAK biochemical assay (LANCE Ultra TR-FRET), TYK2; details: recombinant TYK2, TR-FRET; read-out: Biochemical Assay (μM) TYK2
T4 construct: purchased Carna Biosciences
Protocol: as §1

T4 sequence (P29597 whole entry): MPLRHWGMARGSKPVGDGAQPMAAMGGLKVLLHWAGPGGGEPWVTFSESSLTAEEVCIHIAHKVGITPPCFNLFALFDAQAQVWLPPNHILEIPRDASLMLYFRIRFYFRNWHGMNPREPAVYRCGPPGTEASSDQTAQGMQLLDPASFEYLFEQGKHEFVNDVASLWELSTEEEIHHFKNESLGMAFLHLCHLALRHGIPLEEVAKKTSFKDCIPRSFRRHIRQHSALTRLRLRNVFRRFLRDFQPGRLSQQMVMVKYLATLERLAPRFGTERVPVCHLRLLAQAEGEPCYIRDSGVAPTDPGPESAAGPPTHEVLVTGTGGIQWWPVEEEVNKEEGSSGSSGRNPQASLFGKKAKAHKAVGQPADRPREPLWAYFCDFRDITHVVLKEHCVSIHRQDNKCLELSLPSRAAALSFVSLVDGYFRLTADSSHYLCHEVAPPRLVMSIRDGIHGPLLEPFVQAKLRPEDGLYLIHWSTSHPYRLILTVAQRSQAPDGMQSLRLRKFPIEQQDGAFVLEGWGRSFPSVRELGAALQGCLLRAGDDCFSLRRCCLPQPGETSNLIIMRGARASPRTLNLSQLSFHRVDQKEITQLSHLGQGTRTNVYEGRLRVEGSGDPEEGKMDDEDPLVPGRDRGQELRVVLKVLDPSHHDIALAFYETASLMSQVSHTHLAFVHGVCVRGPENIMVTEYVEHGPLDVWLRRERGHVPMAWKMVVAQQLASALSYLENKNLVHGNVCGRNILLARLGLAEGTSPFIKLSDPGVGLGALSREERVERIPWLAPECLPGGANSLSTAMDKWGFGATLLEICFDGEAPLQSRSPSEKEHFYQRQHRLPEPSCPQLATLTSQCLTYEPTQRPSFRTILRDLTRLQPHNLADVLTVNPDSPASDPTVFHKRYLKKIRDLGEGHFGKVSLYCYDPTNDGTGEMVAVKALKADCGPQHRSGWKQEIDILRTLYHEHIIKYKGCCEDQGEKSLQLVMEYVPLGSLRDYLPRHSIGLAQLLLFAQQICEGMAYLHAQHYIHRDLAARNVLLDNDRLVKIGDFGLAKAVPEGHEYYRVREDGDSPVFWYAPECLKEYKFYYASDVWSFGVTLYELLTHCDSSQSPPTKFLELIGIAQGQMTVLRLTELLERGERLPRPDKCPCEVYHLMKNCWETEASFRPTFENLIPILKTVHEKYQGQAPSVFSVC
T2 sequence (O60674 whole entry): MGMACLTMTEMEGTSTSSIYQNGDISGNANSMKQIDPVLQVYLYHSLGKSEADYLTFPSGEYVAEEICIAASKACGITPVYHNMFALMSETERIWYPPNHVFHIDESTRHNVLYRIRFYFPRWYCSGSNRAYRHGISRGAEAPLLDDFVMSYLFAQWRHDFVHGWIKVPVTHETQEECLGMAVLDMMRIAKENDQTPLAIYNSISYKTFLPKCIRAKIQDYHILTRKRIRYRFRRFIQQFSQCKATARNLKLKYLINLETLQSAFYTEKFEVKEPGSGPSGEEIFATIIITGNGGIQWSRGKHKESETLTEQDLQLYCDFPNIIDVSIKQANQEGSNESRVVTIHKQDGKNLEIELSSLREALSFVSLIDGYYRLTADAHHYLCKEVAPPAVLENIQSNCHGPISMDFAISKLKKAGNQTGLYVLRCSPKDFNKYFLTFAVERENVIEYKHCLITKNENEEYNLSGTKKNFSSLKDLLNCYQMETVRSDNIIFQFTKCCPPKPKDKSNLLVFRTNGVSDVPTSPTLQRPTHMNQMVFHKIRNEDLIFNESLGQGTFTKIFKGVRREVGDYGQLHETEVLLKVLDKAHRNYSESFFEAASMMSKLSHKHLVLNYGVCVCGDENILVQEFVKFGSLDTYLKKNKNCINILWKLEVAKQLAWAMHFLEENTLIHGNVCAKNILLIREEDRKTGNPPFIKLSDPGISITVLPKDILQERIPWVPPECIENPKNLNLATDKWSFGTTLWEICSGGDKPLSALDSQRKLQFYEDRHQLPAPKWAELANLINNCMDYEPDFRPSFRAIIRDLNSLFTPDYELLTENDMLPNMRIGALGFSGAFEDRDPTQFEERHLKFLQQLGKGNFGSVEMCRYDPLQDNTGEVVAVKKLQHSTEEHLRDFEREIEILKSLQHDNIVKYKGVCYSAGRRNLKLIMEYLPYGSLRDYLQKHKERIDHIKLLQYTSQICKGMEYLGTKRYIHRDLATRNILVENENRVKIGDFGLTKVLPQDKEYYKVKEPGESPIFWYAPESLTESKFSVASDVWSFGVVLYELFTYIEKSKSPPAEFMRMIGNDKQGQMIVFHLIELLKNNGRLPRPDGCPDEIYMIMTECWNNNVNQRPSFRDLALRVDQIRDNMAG
T1 sequence (P23458 whole entry): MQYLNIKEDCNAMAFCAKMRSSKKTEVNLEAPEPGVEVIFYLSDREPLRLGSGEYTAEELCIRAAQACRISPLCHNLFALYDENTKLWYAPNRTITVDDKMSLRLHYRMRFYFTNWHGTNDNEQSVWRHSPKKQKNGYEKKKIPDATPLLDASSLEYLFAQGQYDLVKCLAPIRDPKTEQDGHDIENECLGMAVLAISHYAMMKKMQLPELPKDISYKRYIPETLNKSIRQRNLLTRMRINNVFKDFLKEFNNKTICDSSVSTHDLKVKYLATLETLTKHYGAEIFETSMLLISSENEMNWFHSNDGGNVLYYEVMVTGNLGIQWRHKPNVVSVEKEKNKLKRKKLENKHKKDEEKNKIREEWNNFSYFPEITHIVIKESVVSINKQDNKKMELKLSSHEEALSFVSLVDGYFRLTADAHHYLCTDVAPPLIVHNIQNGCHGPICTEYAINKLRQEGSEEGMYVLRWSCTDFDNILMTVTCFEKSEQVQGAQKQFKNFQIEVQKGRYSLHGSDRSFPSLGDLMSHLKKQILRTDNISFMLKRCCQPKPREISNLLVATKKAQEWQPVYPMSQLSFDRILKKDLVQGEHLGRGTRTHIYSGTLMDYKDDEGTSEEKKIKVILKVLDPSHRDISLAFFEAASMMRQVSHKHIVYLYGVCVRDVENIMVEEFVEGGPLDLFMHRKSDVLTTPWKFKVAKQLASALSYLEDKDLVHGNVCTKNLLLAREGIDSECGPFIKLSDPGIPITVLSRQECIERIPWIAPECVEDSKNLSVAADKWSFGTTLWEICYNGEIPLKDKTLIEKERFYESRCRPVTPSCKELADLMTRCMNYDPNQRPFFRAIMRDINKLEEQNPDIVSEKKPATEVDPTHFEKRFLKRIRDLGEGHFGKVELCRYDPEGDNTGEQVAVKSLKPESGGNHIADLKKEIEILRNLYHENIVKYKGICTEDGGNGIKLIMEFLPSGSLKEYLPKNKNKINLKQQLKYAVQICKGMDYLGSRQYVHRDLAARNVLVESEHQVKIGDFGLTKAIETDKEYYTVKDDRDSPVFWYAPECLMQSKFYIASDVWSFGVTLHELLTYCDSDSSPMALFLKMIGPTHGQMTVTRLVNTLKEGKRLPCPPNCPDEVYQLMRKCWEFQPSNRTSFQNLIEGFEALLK

IC50 (Recombinant JAK1) [µM] | IC50 (Recombinant JAK2) [µM] | IC50 (Recombinant JAK3) [µM] | IC50 (Recombinant TYK2) [µM] | SMILES
> 10 | > 10 | > 10 | > 10 | O=C(NCC(F)(F)F)c1ccc(-c2ccnc3[nH]c(=O)[nH]c23)cc1 [Example 1001, N-(2,2,2-trifluoroethyl)-4-(2,3-dihydro-2-oxo-1H-imidazo[4,5-b]pyridin-7-yl)benzamide]
> 10 | > 10 | > 10 | > 10 | O=C(NCC(F)(F)F)Nc1ncc(-c2ccnc3[nH]c(=O)[nH]c23)cn1 [Example 1004, 1-(2,2,2-trifluoroethyl)-3-(5-(2,3-dihydro-2-oxo-1H-imidazo[4,5-b]pyridin-7-yl)pyrimidin-2-yl)urea]
– | – | – | > 1 | O=C(NCC(F)(F)F)Nc1cnc(-c2ccnc3[nH]c(=O)[nH]c23)cn1 [Example 1006, 1-(5-(2-oxo-2,3-dihydro-1H-imidazo[4,5-b]pyridin-7-yl)pyrazin-2-yl)-3-(2,2,2-trifluoroethyl)urea]
– | – | > 1 | – | N#CCNC(=O)N1CCN(c2ccnc3[nH]c(=O)[nH]c23)CC1 [Example 1012, N-(cyanomethyl)-4-(2,3-dihydro-2-oxo-1H-imidazo[4,5-b]pyridin-7-yl)piperazine-1-carboxamide]
– | > 1 | > 1 | > 1 | O=C(Nc1ccnc(F)c1)N1CCN(c2ccnc3[nH]c(=O)[nH]c23)CC1 [Example 1015, N-(2-fluoropyridin-4-yl)-4-(2,3-dihydro-2-oxo-1H-imidazo[4,5-b]pyridin-7-yl)piperazine-1-carboxamide]
– | > 1 | > 1 | > 1 | COc1cc(NC(=O)N2CCN(c3ccnc4[nH]c(=O)[nH]c34)CC2)ccn1 [Example 1019, 4-(2,3-dihydro-2-oxo-1H-imidazo[4,5-b]pyridin-7-yl)-N-(2-methoxypyridin-4-yl)piperazine-1-carboxamide]
– | > 1 | > 1 | > 1 | CC(NC(=O)N1CCN(c2ccnc3[nH]c(=O)[nH]c23)CC1)C(F)(F)F (stereo not drawn) [Example 1021, N-(1,1,1-trifluoropropan-2-yl)-4-(2,3-dihydro-2-oxo-1H-imidazo[4,5-b]pyridin-7-yl)piperazine-1-carboxamide]
– | – | > 1 | > 1 | CC(C)(C#N)NC(=O)n1cc(-c2ccnc3[nH]c(=O)[nH]c23)cn1 [Example 1033, N-(2-cyanopropan-2-yl)-4-(2,3-dihydro-2-oxo-1H-imidazo[4,5-b]pyridin-7-yl)-1H-pyrazole-1-carboxamide]
– | – | – | > 1 | CCC(C)(C#N)NC(=O)n1cc(-c2ccnc3[nH]c(=O)[nH]c23)cn1 (stereo not drawn) [Example 1040, N-(2-cyanobutan-2-yl)-4-(2,3-dihydro-2-oxo-1H-imidazo[4,5-b]pyridin-7-yl)-1H-pyrazole-1-carboxamide]
– | > 0.1 | > 0.1 | > 1 | CN(C)C(c1ccc(-n2cc(-c3ccnc4[nH]cnc34)cn2)nc1)C(F)(F)F (stereo not drawn) [Example 1121, 1-(6-(4-(3H-imidazo[4,5-b]pyridin-7-yl)-1H-pyrazol-1-yl)pyridin-3-yl)-2,2,2-trifluoro-N,N-dimethylethanamine]
– | > 0.5 | > 0.1 | > 1 | OC(c1ccc(-n2cc(-c3ccnc4[nH]cnc34)cn2)nc1)(C1CCCC1)C(F)(F)F (stereo not drawn) [Example 1132, 1-(6-(4-(3H-imidazo[4,5-b]pyridin-7-yl)-1H-pyrazol-1-yl)pyridin-3-yl)-1-cyclopentyl-2,2,2-trifluoroethanol]
– | > 0.5 | > 0.5 | > 1 | FC(F)(F)C(c1ccc(-n2cc(-c3ccnc4[nH]cnc34)cn2)nc1)N1CCOCC1 (stereo not drawn) [Example 1137, 7-(1-(5-(2,2,2-trifluoro-1-morpholinoethyl)pyridin-2-yl)-1H-pyrazol-4-yl)-3H-imidazo[4,5-b]pyridine]
– | – | < 0.1 | > 1 | OC(c1ccnc(-n2cc(-c3ccnc4[nH]cnc34)cn2)c1)C(F)(F)F (stereo not drawn) [Example 1172, 1-(2-(4-(3H-imidazo[4,5-b]pyridin-7-yl)-1H-pyrazol-1-yl)pyridin-4-yl)-2,2,2-trifluoroethanol]
